Laboratory results: PubChem BioAssay AID248 (DTP/NCI, 2004)
Where “and” joins values, the source holds several entries; their conditions need not be identical. Identical values can stand only once. Toxic doses and inconclusive results are not listed. No stated cut-off is given here; in the data, active means T/C of 150% or more; inactive means T/C below 125%.

System: L1210 leukemia ip in BDF1 mice, survival T/C
Test: NCI In Vivo Anticancer Drug Screen. Data for tumor model L1210 Leukemia (intraperitoneal) in B6D2F1 (BDF1) mice
Settings: endpoint: mean survival time, higher = longer survival
Procedure, shortened: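 Ratio derived from survival: compound-dosed mice over vehicle-dosed mice, all bearing a transplantable tumor.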

[1] = dose: 50.0 mg/kg/injection, schedule: Q01DX009 (ip), vehicle: saline
[2] = dose: 100.0 mg/kg/injection, schedule: Q01DX009 (ip), vehicle: saline
[3] = dose: 100.0 mg/kg/injection, schedule: Q01DX001 (ip), vehicle: saline
[4] = dose: 200.0 mg/kg/injection, schedule: Q01DX001 (ip), vehicle: saline
[5] = dose: 400.0 mg/kg/injection, schedule: Q01DX001 (ip), vehicle: saline
[6] = dose: 100.0 mg/kg/injection, schedule: Q04DX003 (ip), vehicle: saline
[7] = dose: 200.0 mg/kg/injection, schedule: Q04DX003 (ip), vehicle: saline
[8] = dose: 100.0 mg/kg/injection, schedule: Q04DX003 (ip), vehicle: saline with Tween-80
[9] = dose: 200.0 mg/kg/injection, schedule: Q04DX003 (ip), vehicle: saline with Tween-80
[10] = dose: 400.0 mg/kg/injection, schedule: Q04DX003 (ip), vehicle: saline with Tween-80
[11] = dose: 100.0 mg/kg/injection, schedule: Q01DX001 (ip), vehicle: carboxymethylcellulose (CMC)
[12] = dose: 200.0 mg/kg/injection, schedule: Q01DX001 (ip), vehicle: carboxymethylcellulose (CMC)
[13] = dose: 400.0 mg/kg/injection, schedule: Q01DX001 (ip), vehicle: carboxymethylcellulose (CMC)
[14] = dose: 100.0 mg/kg/injection, schedule: Q01DX009 (ip), vehicle: saline with Tween-80
[15] = dose: 200.0 mg/kg/injection, schedule: Q01DX009 (ip), vehicle: saline with Tween-80
[16] = dose: 50.0 mg/kg/injection, schedule: Q01DX009 (ip), vehicle: saline with Tween-80

Measured: T/C

O=C(O)C1C2C=CC(C3C=CC32)C1C(=O)O (stereo not drawn)
inactive: dose: 6.25 mg/kg/injection, schedule: Q01DX009 (ip), vehicle: saline 98 % of control | dose: 12.5 mg/kg/injection, schedule: Q01DX009 (ip), vehicle: saline 110 % of control | dose: 25.0 mg/kg/injection, schedule: Q01DX009 (ip), vehicle: saline 102 % of control and 115 % of control | [1] 96 % of control and 105 % of control | [2] 100 % of control | dose: 200.0 mg/kg/injection, schedule: Q01DX009 (ip), vehicle: saline 100 % of control | dose: 400.0 mg/kg/injection, schedule: Q01DX009 (ip), vehicle: saline 94 % of control

O=Cc1c(Cl)c(Cl)c(C=O)c(Cl)c1Cl
inactive: dose: 50.0 mg/kg/injection, schedule: Q01DX001 (ip), vehicle: saline 103 % of control | [3] 103 % of control | dose: 100.0 mg/kg/injection, schedule: Q01DX009 (ip), vehicle: Klucel (hydroxypropylcellulose) (HPC) 107 % of control | dose: 100.0 mg/kg/injection, schedule: Q04DX003 (ip), vehicle: Klucel (hydroxypropylcellulose) (HPC) 102 % of control | [4] 100 % of control | dose: 200.0 mg/kg/injection, schedule: Q01DX009 (ip), vehicle: Klucel (hydroxypropylcellulose) (HPC) 115 % of control | dose: 200.0 mg/kg/injection, schedule: Q04DX003 (ip), vehicle: Klucel (hydroxypropylcellulose) (HPC) 101 % of control | [5] 105 % of control | dose: 400.0 mg/kg/injection, schedule: Q01DX009 (ip), vehicle: Klucel (hydroxypropylcellulose) (HPC) 103 % of control | dose: 400.0 mg/kg/injection, schedule: Q04DX003 (ip), vehicle: Klucel (hydroxypropylcellulose) (HPC) 98 % of control

CCOC(CCc1cnc[nH]c1=O)OCC
inactive: [6] 106 % of control | [7] 97 % of control | dose: 400.0 mg/kg/injection, schedule: Q04DX003 (ip), vehicle: saline 93 % of control

Nc1cccnc1NCC(O)c1ccccc1 (stereo not drawn)
inactive: [3] 103 % of control | [4] 97 % of control

Nc1ccc(S(=O)(=O)NC(=O)NCc2ccccc2)cc1
inactive: [8] 101 % of control | [9] 98 % of control | [10] 101 % of control

C/C(=N/N(C)C)c1cccc(N)c1
inactive: [3] 98 % of control | [4] 93 % of control | [5] 101 % of control

C1=C(c2ccccc2)N(C2CC2)C(c2ccccc2)=CN1Cc1ccccc1
inactive: dose: 100.0 mg/kg/injection, schedule: Q04DX002 (ip), vehicle: Klucel (hydroxypropylcellulose) (HPC) 95 % of control | dose: 200.0 mg/kg/injection, schedule: Q04DX002 (ip), vehicle: Klucel (hydroxypropylcellulose) (HPC) 118 % of control | dose: 400.0 mg/kg/injection, schedule: Q04DX002 (ip), vehicle: Klucel (hydroxypropylcellulose) (HPC) 103 % of control

S=C(SSC(=S)N1CCOCC1)N1CCOCC1
inactive: dose: 100.0 mg/kg/injection, schedule: Q01DX001 (ip), vehicle: Klucel (hydroxypropylcellulose) (HPC) 88 % of control | [6] 93 % of control | dose: 200.0 mg/kg/injection, schedule: Q01DX001 (ip), vehicle: Klucel (hydroxypropylcellulose) (HPC) 101 % of control | [7] 101 % of control

CCCCCCCCCCCCCCCC(=O)N(CC)CC
inactive: [11] 104 % of control | dose: 100.0 mg/kg/injection, schedule: Q01DX009 (ip), vehicle: carboxymethylcellulose (CMC) 98 % of control and 104 % of control | dose: 100.0 mg/kg/injection, schedule: Q04DX003 (ip), vehicle: carboxymethylcellulose (CMC) 96 % of control | [12] 96 % of control | dose: 200.0 mg/kg/injection, schedule: Q01DX009 (ip), vehicle: carboxymethylcellulose (CMC) 96 % of control and 102 % of control | dose: 200.0 mg/kg/injection, schedule: Q04DX003 (ip), vehicle: carboxymethylcellulose (CMC) 92 % of control | [13] 95 % of control | dose: 400.0 mg/kg/injection, schedule: Q01DX009 (ip), vehicle: carboxymethylcellulose (CMC) 96 % of control and 89 % of control | dose: 400.0 mg/kg/injection, schedule: Q04DX003 (ip), vehicle: carboxymethylcellulose (CMC) 94 % of control

CC[n+]1cn(-c2ccc(S(=O)(=O)[O-])cc2)nn1
inactive: [3] 101 % of control | [4] 110 % of control

C1=NCCCN1
inactive: [1] 89 % of control | [2] 94 % of control | [6] 97 % of control | [7] 100 % of control

CNC(=S)NC1CC(OC2CC(O)(C(C)=O)Cc3c(O)c4c(c(O)c32)C(=O)c2c(OC)cccc2C4=O)OC(C)C1O (stereo not drawn)
inactive: dose: 2.0 mg/kg/injection, schedule: Q04DX003 (ip), vehicle: water 107 % of control | dose: 3.12 mg/kg/injection, schedule: Q01DX009 (ip), vehicle: saline with Tween-80 115 % of control | dose: 4.0 mg/kg/injection, schedule: Q04DX003 (ip), vehicle: water 106 % of control | dose: 6.25 mg/kg/injection, schedule: Q01DX009 (ip), vehicle: saline with Tween-80 120 % of control | dose: 8.0 mg/kg/injection, schedule: Q04DX003 (ip), vehicle: water 107 % of control | dose: 12.5 mg/kg/injection, schedule: Q04DX003 (ip), vehicle: saline with Tween-80 108 % of control | dose: 16.0 mg/kg/injection, schedule: Q04DX003 (ip), vehicle: water 109 % of control and 110 % of control | dose: 25.0 mg/kg/injection, schedule: Q04DX003 (ip), vehicle: saline with Tween-80 124 % of control | dose: 32.0 mg/kg/injection, schedule: Q04DX003 (ip), vehicle: water 116 % of control | dose: 50.0 mg/kg/injection, schedule: Q04DX003 (ip), vehicle: saline with Tween-80 121 % of control | dose: 64.0 mg/kg/injection, schedule: Q04DX003 (ip), vehicle: water 110 % of control | dose: 125.0 micrograms/kg/injection, schedule: Q04DX003 (ip), vehicle: water 96 % of control | dose: 250.0 micrograms/kg/injection, schedule: Q04DX003 (ip), vehicle: water 103 % of control | dose: 500.0 micrograms/kg/injection, schedule: Q04DX003 (ip), vehicle: water 102 % of control | dose: 1000.0 micrograms/kg/injection, schedule: Q04DX003 (ip), vehicle: water 103 % of control | dose: 2000.0 micrograms/kg/injection, schedule: Q04DX003 (ip), vehicle: water 98 % of control

O=C(Nc1ccc(Cl)c([N+](=O)[O-])c1)OCCOc1ccccc1
inactive: [14] 101 % of control | [8] 110 % of control | [15] 110 % of control | [9] 105 % of control | dose: 400.0 mg/kg/injection, schedule: Q01DX009 (ip), vehicle: saline with Tween-80 106 % of control | [10] 100 % of control

COC(=O)/C(Br)=C\c1ccc(-c2ccccc2)cc1
inactive: [16] 93 % of control | [14] 93 % of control | [15] 93 % of control

O=CNC(Cc1ccccc1)Cc1ccccc1
inactive: dose: 5.0 mg/kg/injection, schedule: Q01DX009 (ip), vehicle: Klucel (hydroxypropylcellulose) (HPC) 98 % of control | dose: 5.0 mg/kg/injection, schedule: Q04DX003 (ip), vehicle: Klucel (hydroxypropylcellulose) (HPC) 103 % of control | dose: 10.0 mg/kg/injection, schedule: Q01DX009 (ip), vehicle: Klucel (hydroxypropylcellulose) (HPC) 102 % of control | dose: 10.0 mg/kg/injection, schedule: Q04DX003 (ip), vehicle: Klucel (hydroxypropylcellulose) (HPC) 103 % of control | dose: 20.0 mg/kg/injection, schedule: Q01DX009 (ip), vehicle: Klucel (hydroxypropylcellulose) (HPC) 102 % of control | dose: 20.0 mg/kg/injection, schedule: Q04DX003 (ip), vehicle: Klucel (hydroxypropylcellulose) (HPC) 102 % of control and 107 % of control

O=[N+]([O-])c1ccc(C[n+]2ccccc2)cc1
inactive: [1] 89 % of control

O=C1c2cccc3cc([N+](=O)[O-])cc(c23)C(=O)N1C(CO)(CO)CO
inactive: dose: 100.0 mg/kg/injection, schedule: Q04DX002 (ip), vehicle: saline 101 % of control | dose: 200.0 mg/kg/injection, schedule: Q04DX002 (ip), vehicle: saline 101 % of control | dose: 400.0 mg/kg/injection, schedule: Q04DX002 (ip), vehicle: saline 99 % of control

COC(=O)C[CH2][Sn]([Br])([Br])[c]1ccccc1
inactive: dose: 100.0 mg/kg/injection, schedule: Q04DX002 (ip), vehicle: saline with Tween-80 95 % of control

NNC(=O)c1ccc(N)cc1
inactive: dose: 50.0 mg/kg/injection, schedule: Q01DX001 (ip), vehicle: carboxymethylcellulose (CMC) 95 % of control | [16] 93 % of control | [11] 86 % of control | [14] 104 % of control | [12] 95 % of control | [15] 100 % of control | [13] 103 % of control
